Results reported in ChEMBL document CHEMBL3045853, “Bifenthrin longevity at the termiticidal application rate” (2012).
Calls of active or inactive are those of the source. The calls are words filed in the database; no cut-off is given here.

Assays:
[1] = tested on: Reticulitermes flavipes; experiment: Termiticidal activity against Reticulitermes flavipes assessed as mortality at 0.6 ug/g by forced exposure test; type: functional
[2] = tested on: Reticulitermes flavipes; experiment: Termiticidal activity against Reticulitermes flavipes after 3 days by forced exposure test; type: functional
[3] = tested on: Reticulitermes flavipes; experiment: Termiticidal activity against Reticulitermes flavipes assessed as mortality at 0.6 ug/g after 10 months by forced exposure test; type: functional
[4] = tested on: Reticulitermes flavipes; experiment: Termiticidal activity against Reticulitermes flavipes assessed as mortality at 0.6 ug/g after 5 months by forced exposure test; type: functional
[5] = tested on: Reticulitermes flavipes; experiment: Termiticidal activity against Reticulitermes flavipes after 7 days by forced exposure test; type: functional, organism-based
[6] = tested on: Reticulitermes flavipes; experiment: Termiticidal activity against Reticulitermes flavipes assessed as mortality after 4 days by forced exposure test; type: functional
[7] = tested on: Reticulitermes flavipes; experiment: Termiticidal activity against Reticulitermes flavipes assessed as mortality at 0.6 ug/g after 3 days by forced exposure test; type: functional
[8] = tested on: Reticulitermes flavipes; experiment: Termiticidal activity against Reticulitermes flavipes assessed as mortality at 0.06 ug/g after 7 days by forced exposure test; type: functional
[9] = tested on: Reticulitermes flavipes; experiment: Termiticidal activity against Reticulitermes flavipes assessed as mortality at 6.9 ug/g after 7 days by forced exposure test; type: functional
[10] = tested on: Reticulitermes flavipes; experiment: Termiticidal activity against Reticulitermes flavipes at 0.69 ug/g after 7 days by forced exposure test; type: functional, organism-based

For `Cc1c(COC(=O)[C@@H]2[C@H](/C=C(\Cl)C(F)(F)F)C2(C)C)cccc1-c1ccccc1` [BIFENTHRIN], which mortality [1] is on record?
Its mortality is 100%.

And the LC50 [2]?
Its LC50 is 0.074 µg/g.

What about the LC95 [2] of the same compound?
Its LC95 is 0.724 µg/g.

And the mortality [3]?
The mortality was 73.9%.

And the mortality [4]?
Its mortality is 63%.

And the Activity [5]?
Its Activity is “inactive”.

For `N#Cc1nn(-c2c(Cl)cc(C(F)(F)F)cc2Cl)c(N)c1[S+]([O-])C(F)(F)F` (configuration not stated) [FIPRONIL], which LC50 [6] is on record?
Its LC50 is 0.49 µg/g.

And the mortality [7]?
Its mortality is 100%.

And the mortality [8]?
The mortality was 100%.

Which results are given for `O=[N+]([O-])/N=C1\NCCN1Cc1ccc(Cl)nc1` [IMIDACLOPRID]?
Activity [2]: inactive; mortality [9]: 80%; Activity [10]: inactive
